From patent US12521356B2, “Compositions and methods for treating pain, inflammation, infection, malaria, and sepsis” (Duke University, priority 2018, dated 2026)

Tests used:
[1] = biological target: T1, GPR37 (Homo sapiens, UniProt O15354); assay: Ca2+ imaging (Fura-2AM) in HEK293 cells transfected with human GPR37 cDNA; type: cell-based; conditions: GPR37-expressing HEK293 cells; for intracellular Ca2+ (iCa2+) increase: 3 min
T1 construct: host or cells: HEK293 flip-in cells
T1 sequence (O15354 27-613): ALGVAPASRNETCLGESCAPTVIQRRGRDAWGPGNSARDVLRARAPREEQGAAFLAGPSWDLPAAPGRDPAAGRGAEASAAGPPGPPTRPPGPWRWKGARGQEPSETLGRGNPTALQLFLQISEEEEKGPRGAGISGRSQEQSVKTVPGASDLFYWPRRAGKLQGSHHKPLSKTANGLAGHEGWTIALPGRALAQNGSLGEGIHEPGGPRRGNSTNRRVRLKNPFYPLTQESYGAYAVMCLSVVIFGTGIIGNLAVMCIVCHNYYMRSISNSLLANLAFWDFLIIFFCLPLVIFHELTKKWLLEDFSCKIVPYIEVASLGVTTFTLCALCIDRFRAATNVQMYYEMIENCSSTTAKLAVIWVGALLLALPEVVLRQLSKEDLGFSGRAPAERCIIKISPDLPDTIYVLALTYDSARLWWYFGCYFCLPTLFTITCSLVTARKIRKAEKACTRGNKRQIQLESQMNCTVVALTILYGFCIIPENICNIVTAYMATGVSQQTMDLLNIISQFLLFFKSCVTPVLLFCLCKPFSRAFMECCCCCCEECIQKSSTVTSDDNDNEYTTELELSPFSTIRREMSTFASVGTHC
Procedure: (§1) HEK cell culture and transfection. HEK293 flip-in cell line was purchased from Duke Cell Culture Facility. Cells were cultured in high glucose (4.5 g/L) Dulbecco's Modified Eagle's Medium containing 10% (v/v) fetal bovine serum (Gibco). Transfection (2 μg cDNA) was performed with Lonza electroporation (Lonza) at 70% confluency and the transfected cells were cultured in the same growth medium for 48 h before use. The hGPR37-V5 pLenti304 plasmids were obtained from DNASU (Tempe, AZ), and hGPR32, hChemR23 and hALX pcDNA3 plasmids were provided by Dr. Serhan from Harvard Medical School, Boston.
(§2) Calcium imaging. HEK 293 cells, with or without transfection of Gpr37, GPR32, ChemR23 or ALX1 cDNA, were loaded with 5 μM Fura-2AM (Invitrogen) for 1 hour and then were resuspended in normal external buffer (140 NaCl, 5 KCl, 2 CaCl2, 2 MgCl2, 10 HEPES, in mM, titrated to pH 7.4 with NaOH) or external Ca^2+-free buffer (140 NaCl, 2 MgCl2, 5 EGTA, 10 HEPES, in mM, titrated to pH 7.4 with NaOH). Peritoneal macrophages, collected from WT and Gpr37 KO mice, were loaded with 5 μM […] (Invitrogen) for 1 hour and then were resuspended in normal external buffer. Images of the HEK 293 cells and macrophages with the excitation wavelength of 340 nm and 380 nm were captured with a cooled Digital CMOS camera (ORCA-Flash 4.0, Hamamatsu Photonics K.K, Japan). The ratio of fluorescence intensity of the two wavelengths in each experiment was analyzed using MetaFluor (Molecular Devices). The Shutter speed and wavelength was controlled by Lambda DG-4 system (Sutter instrument Co., Novato, CA). Values from each of the experiments were normalized to the baseline ratio of 340/380 nm.
In order to investigate how GPR37 regulates intracellular signaling, we conducted Ca^2+ imaging in HEK293 cells that overexpress GPR37. […] Thus, we hypothesized TX14 and SPM may activate the same receptors and elicit similar intracellular responses. We transfected HEK293 cells with human GPR37 cDNA, loaded these cells with Ca^2+ dye Fura-2AM, and stimulated them with TX14 and various SPMs, using ionomycin (2 μM) as a positive control for Ca^2+ influx (FIG. 2A, FIG. 2B, FIG. 2C).

[2] = biological target: T2, GPR32 (Homo sapiens, UniProt O75388); assay: Ca2+ imaging (Fura-2AM) in HEK293 cells transfected with GPR32 cDNA; type: cell-based; conditions: HEK293 cells expressing GPR32; RvD1 100 nM
T2 construct: host or cells: HEK293 flip-in cells
T2 sequence (O75388 whole entry): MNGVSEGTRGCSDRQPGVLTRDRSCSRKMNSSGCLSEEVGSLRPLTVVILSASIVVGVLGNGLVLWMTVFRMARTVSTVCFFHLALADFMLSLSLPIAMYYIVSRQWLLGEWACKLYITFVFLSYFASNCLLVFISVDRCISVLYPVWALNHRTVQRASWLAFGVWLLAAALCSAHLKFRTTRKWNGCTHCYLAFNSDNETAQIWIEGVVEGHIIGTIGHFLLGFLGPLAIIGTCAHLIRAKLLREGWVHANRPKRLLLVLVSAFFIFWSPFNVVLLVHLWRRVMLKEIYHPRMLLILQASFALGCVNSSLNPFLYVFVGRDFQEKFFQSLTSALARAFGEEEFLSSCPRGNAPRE
Excerpt: (§3) FIG. 10A-FIG. 10C. Characterization of intracellular Ca^2+ changes in HEK293 cells expressing ChemR23, GPR32, and ALX. Ca^2+ imaging with Fura-2AM indicator showing iCa^2+ levels in HEK293 cells transfected with ChemR23 (FIG. 10A), GPR32 (FIG. 10B), and ALX (FIG. 10C) cDNAs. Note that NPD1 fails to elicit iCa^2+ increase in HEK293 cells expressing ChemR23, GPR32, and ALX. […] ATP is included as a positive control. *P<0.05, compared with baseline n=44˜97 cells from 3 cultures. All the data are expressed as mean±s.e.m.
as §1
as §2, with “Values from each of the experiments were normalized to the baseline ratio of 340/380 nm.” left out

[3] = biological target: T1, GPR37; assay: Dot blot binding assay with lysates of HEK293 cells with GPR37 cDNA or mock transfection; conditions: for binding to GPR37-containing lysates: blots coated with different concentrations, lysates of HEK293 cells with GPR37 cDNA
Procedure: (§4) Lipids overlay assay. Lipids membrane coating and protein overlay assay was conducted as previously described (Ji R R, et al. Science 2016, 354, 572-577). Ethanol and chloroform soluble fatty acids were directly loaded on hydrophobic PVDF membrane (Bio-Rad). The fatty acids (NPD1, RvD1, RvE1, and DHA) coated membranes were dried and blocked with 1% BSA. The cell lysate and purified GPR37-V5 protein were incubated with the coating membrane for 2 h, and the binding was detected by anti-V5 tagged antibody (mouse, 1:1000, Thermo scientific, Catalog: 46-0705).
as §1
To determine whether NPD1 and TX14 bind to GPR37, we conducted dot blot assay by coating the blots with different concentrations of NPD1 and TX14 and included RvE1 as a control. The blots were then incubated with cell lysates from HEK293 cells with GPR37 cDNA or Mock transfection.

[4] = biological target: T3, ChemR23 (Homo sapiens, UniProt Q99788); assay: Ca2+ imaging (Fura-2AM) in HEK293 cells transfected with ChemR23 cDNA; type: cell-based; conditions: HEK293 cells expressing ChemR23; RvE1 100 nM
T3 construct: host or cells: HEK293 flip-in cells
T3 sequence (Q99788 1-373): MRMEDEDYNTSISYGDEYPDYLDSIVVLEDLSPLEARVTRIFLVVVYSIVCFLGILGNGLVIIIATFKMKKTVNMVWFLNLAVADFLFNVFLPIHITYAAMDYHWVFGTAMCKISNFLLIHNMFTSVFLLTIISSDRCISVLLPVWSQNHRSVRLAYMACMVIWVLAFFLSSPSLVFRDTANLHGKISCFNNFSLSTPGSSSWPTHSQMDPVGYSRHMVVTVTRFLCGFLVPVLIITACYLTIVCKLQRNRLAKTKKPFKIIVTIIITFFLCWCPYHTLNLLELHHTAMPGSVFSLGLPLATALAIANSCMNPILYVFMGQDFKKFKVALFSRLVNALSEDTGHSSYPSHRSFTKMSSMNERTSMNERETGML
Excerpt: as §3, §1
as §2, with “Values from each of the experiments were normalized to the baseline ratio of 340/380 nm.” left out

[5] = biological target: T4, CHEM23 (Homo sapiens, UniProt Q99788); assay: Dot blot binding assay, positive control CHEM23
T4 sequence (Q99788 1-373): T3 sequence (Q99788 1-373)
Procedure: as §4, §1
To determine whether NPD1 and TX14 bind to GPR37, we conducted dot blot assay by coating the blots with different concentrations of NPD1 and TX14 and included RvE1 as a control. […]

intracellular Ca2+ (iCa2+) increase ([1]; 100 nM) | iCa2+ increase / Ca2+ response [2] | binding to GPR37-containing lysates [3] | binding of lysates from mock transfection (GPR37-negative) ([3]; mock-transfected HEK293 lysates) | intracellular Ca2+ (iCa2+) increase ([1]; 30 nM) | EC50 ([1]; dose response, read-out: EC50 of iCa2+ increase) | iCa2+ increase / Ca2+ response [4] | binding to CHEM23 [5] | Compound | binding affinity to GPR37, comparison ([3]; dose-response curve analysis)
failed to increase iCa^2+ | failed to evoke Ca^2+ responses | – | – | – | – | – | – | CC/C=C\C[C@H](O)/C=C/C=C\C=C\C=C\[C@@H](O)[C@@H](O)C/C=C\CCC(=O)O [RvD1] | –
– | failed to elicit iCa^2+ increase | dose-dependent binding | did not show binding activities | elicited significant increases | 26 nM | failed to elicit iCa^2+ increase | – | CC/C=C\C[C@H](O)\C=C/C=C/C=C/[C@H](O)C/C=C\C/C=C\CCC(=O)O [NPD1, neuroprotectin D1] | higher binding affinity to GPR37 than TX14
failed to increase iCa^2+ | – | not | – | – | – | failed to evoke Ca^2+ responses | strong binding | CC[C@@H](O)/C=C/C=C\C[C@@H](O)/C=C/C=C/C=C\[C@@H](O)CCCC(=O)O [RvE1] | –
